According to ChEMBL document CHEMBL4622878, “Cytotoxic Activity of Germacrane-Type Sesquiterpene Lactones from Dimerostemma aspilioides” (J Nat Prod, 2020):
Activity calls are given as the source filed them. The rule behind the calls is not given here.

Key:
CCRF-CEM = experiment: Cytotoxicity against human CCRF-CEM cells after 48 hrs by MTT assay; assay type: functional, cell-based
K562 [1] = experiment: Cytotoxicity against human K562 cells after 48 hrs by MTT assay; assay type: functional, cell-based; conditions: K562, 48 h
ADR5000 cell line = experiment: Cytotoxicity against human CEM/ADR5000 cells after 48 hrs by MTT assay; assay type: functional, cell-based; conditions: ADR5000, 48 h
K562-Lucena 1 [2] = experiment: Cytotoxicity against human K562-Lucena 1 cells after 48 hrs by MTT assay; assay type: functional, cell-based; conditions: K562-Lucena 1, 48 h
K562-Lucena 1 [3] = experiment: Induction of cell cycle arrest in human K562-Lucena 1 cells assessed as decrease in accumulation of cells at G1 phase at 5.1 uM after 24 hrs by propidium iodide staining based flow cytometric analysis; assay type: functional
K562-Lucena 1 [4] = experiment: Induction of cell cycle arrest in human K562-Lucena 1 cells assessed as necrotic cells at 5.1 uM after 48 hrs by propidium iodide staining based flow cytometric analysis (reference value: 2.15%); assay type: functional
K562 [5] = experiment: Induction of DNA fragmentation in human K562 cells at 2.3 uM incubated for 48 hrs by DAPI staining based fluorescence microscopy; assay type: functional, cell-based
K562 [6] = experiment: Induction of cell cycle arrest in human K562 cells at 2.3 uM after 48 hrs by propidium iodide staining based flow cytometric analysis; assay type: functional
K562 [7] = experiment: Induction of cell cycle arrest in human K562 cells assessed as decrease in accumulation of cells at G1 phase at 2.3 uM after 24 hrs by propidium iodide staining based flow cytometric analysis; assay type: functional
K562-Lucena 1 [8] = experiment: Induction of cell cycle arrest in human K562-Lucena 1 cells assessed as early apoptotic cells at 5.1 uM after 24 hrs by propidium iodide staining based flow cytometric analysis (reference value: 7.79%); assay type: functional
K562 [9] = experiment: Induction of apoptosis in human K562 cells assessed as early apoptotic cells at 2.3 uM after 48 hrs by Annexin V-FITC/PI double staining based flow cytometry analysis (reference value: 1.67%); assay type: functional
K562 [10] = experiment: Induction of morphological changes in human K562 cells assessed as appearance of apoptotic bodies at 2.3 uM incubated for 48 hrs by DAPI staining based fluorescence microscopy; assay type: functional, cell-based
K562 [11] = experiment: Induction of apoptosis in human K562 cells assessed as early apoptotic cells at 2.3 uM after 24 hrs by Annexin V-FITC/PI double staining based flow cytometry analysis (reference value: 2.76%); assay type: functional
PBMC = experiment: Cytotoxicity against PBMC (unknown origin) after 48 hrs by MTT assay; assay type: cell-based
K562 [12] = experiment: Induction of apoptosis in human K562 cells assessed as viable cells at 2.3 uM after 48 hrs by Annexin V-FITC/PI double staining based flow cytometry analysis (Rvb =97.8%); assay type: functional; conditions: K562, 48 h, read-out: Activity
K562-Lucena 1 [13] = experiment: Induction of cell cycle arrest in human K562-Lucena 1 cells at 5.1 uM after 48 hrs by propidium iodide staining based flow cytometric analysis; assay type: functional
K562-Lucena 1 [14] = experiment: Induction of cell cycle arrest in human K562-Lucena 1 cells assessed as viable cells at 5.1 uM after 48 hrs by propidium iodide staining based flow cytometric analysis (reference value: 87.1%); assay type: functional; conditions: K562-Lucena 1, 48 h, read-out: Activity
K562-Lucena 1 [15] = experiment: Induction of cell cycle arrest in human K562-Lucena 1 cells assessed as early apoptotic cells at 5.1 uM after 48 hrs by propidium iodide staining based flow cytometric analysis (reference value: 7.57%); assay type: functional
K562 [16] = experiment: Induction of apoptosis in human K562 cells assessed as late apoptotic cells at 2.3 uM after 48 hrs by Annexin V-FITC/PI double staining based flow cytometry analysis (reference value: 0.41%); assay type: functional
K562-Lucena 1 [17] = experiment: Induction of DNA fragmentation in human K562-Lucena 1 cells at 5.1 uM incubated for 48 hrs by DAPI staining based fluorescence microscopy; assay type: functional, cell-based
K562-Lucena 1 [18] = experiment: Induction of cell cycle arrest in human K562-Lucena 1 cells assessed as accumulation of cells at G2/M phase at 5.1 uM after 24 hrs by propidium iodide staining based flow cytometric analysis (reference value: 3.3 +/- 0.1%); assay type: functional
K562-Lucena 1 [19] = experiment: Induction of morphological changes in human K562-Lucena 1 cells assessed as appearance of apoptotic bodies at 5.1 uM incubated for 48 hrs by DAPI staining based fluorescence microscopy; assay type: functional, cell-based
K562 [20] = experiment: Induction of cell cycle arrest in human K562 cells assessed as accumulation of cells at G2/M phase at 2.3 uM after 24 hrs by propidium iodide staining based flow cytometric analysis (reference value: 0.4 +/- 0.2%); assay type: functional
K562-Lucena 1 [21] = experiment: Induction of morphological changes in human K562-Lucena 1 cells assessed as appearance of condensed chromatin at 5.1 uM incubated for 48 hrs by DAPI staining based fluorescence microscopy; assay type: functional, cell-based
K562 [22] = experiment: Induction of apoptosis in human K562 cells assessed as viable cells at 2.3 uM after 24 hrs by Annexin V-FITC/PI double staining based flow cytometry analysis (Rvb =96.4%); assay type: functional; conditions: K562, 24 h, read-out: Activity
K562-Lucena 1 [23] = experiment: Induction of cell cycle arrest in human K562-Lucena 1 cells assessed as necrotic cells at 5.1 uM after 24 hrs by propidium iodide staining based flow cytometric analysis (reference value: 1.03%); assay type: functional
K562-Lucena 1 [24] = experiment: Induction of cell cycle arrest in human K562-Lucena 1 cells assessed as late apoptotic cells at 5.1 uM after 48 hrs by propidium iodide staining based flow cytometric analysis (reference value: 3.23%); assay type: functional
K562 [25] = experiment: Induction of apoptosis in human K562 cells assessed as necrotic cells at 2.3 uM after 48 hrs by Annexin V-FITC/PI double staining based flow cytometry analysis (reference value: 0.13%); assay type: functional
K562 [26] = experiment: Induction of cell cycle arrest in human K562 cells assessed as decrease in accumulation of cells at S phase at 2.3 uM after 24 hrs by propidium iodide staining based flow cytometric analysis; assay type: functional
K562 [27] = experiment: Induction of morphological changes in human K562 cells assessed as appearance of condensed chromatin at 2.3 uM incubated for 48 hrs by DAPI staining based fluorescence microscopy; assay type: functional, cell-based
K562 [28] = experiment: Induction of apoptosis in human K562 cells assessed as late apoptotic cells at 2.3 uM after 24 hrs by Annexin V-FITC/PI double staining based flow cytometry analysis (reference value: 0.79%); assay type: functional
K562-Lucena 1 [29] = experiment: Induction of cell cycle arrest in human K562-Lucena 1 cells assessed as late apoptotic cells at 5.1 uM after 24 hrs by propidium iodide staining based flow cytometric analysis (reference value: 3.15%); assay type: functional
K562-Lucena 1 [30] = experiment: Induction of cell cycle arrest in human K562-Lucena 1 cells assessed as increase in hypodiploid cells at sub-G1 phase at 5.1 uM after 48 hrs by propidium iodide staining based flow cytometric analysis; assay type: functional
K562 [31] = experiment: Induction of apoptosis in human K562 cells assessed as necrotic cells at 2.3 uM after 24 hrs by Annexin V-FITC/PI double staining based flow cytometry analysis (reference value: 0.085%); assay type: functional
K562-Lucena 1 [32] = experiment: Induction of cell cycle arrest in human K562-Lucena 1 cells assessed as viable cells at 5.1 uM after 24 hrs by propidium iodide staining based flow cytometric analysis (reference value: 88%); assay type: functional; conditions: K562-Lucena 1, 24 h, read-out: Activity
K562 [33] = experiment: Induction of cell cycle arrest in human K562 cells assessed as increase in hypodiploid cells at sub-G1 phase at 2.3 uM after 48 hrs by propidium iodide staining based flow cytometric analysis; assay type: functional

Question: How did the IC50 (CCRF-CEM) turn out when C=C(CO)C(=O)O[C@H]1C/C(CO)=C/CC/C(C)=C/[C@H]2OC(=O)C(=C)[C@H]12 was run?
Answer: Its IC50 is 0.46 µM.

Question: And the IC50 (K562 [1])?
Answer: Its IC50 is 7 µM.

Question: What about the IC50 (ADR5000 cell line) of the same compound?
Answer: Its IC50 is 1.7 µM.

Question: And the IC50 (K562-Lucena 1 [2])?
Answer: The IC50 was > 10 µM.

Question: Which results are given for C=C(C)C(=O)O[C@H]1C/C(CO)=C/CC[C@@]2(C)O[C@H]2[C@H]2OC(=O)C(=C)[C@@H]21?
Answer: Activity (K562-Lucena 1 [3]): Active; Activity (K562-Lucena 1 [4]): 3.29%; Activity (K562 [5]): Active; Activity (K562 [6]): inactive; Activity (K562 [7]): inactive; Activity (K562-Lucena 1 [8]): 14.7%; Activity (K562 [9]): 30.6%; Activity (K562 [10]): Active; Activity (K562 [11]): 2.26%; IC50 (PBMC): 79.9 µM; viability at 2.3 µM (K562 [12]): 66.4%; Activity (K562-Lucena 1 [13]): inactive; viability at 5.1 µM (K562-Lucena 1 [14]): 54.5%; Activity (K562-Lucena 1 [15]): 31.4%; IC50 (CCRF-CEM): 0.42 µM; IC50 (K562 [1]): 2.3 µM; Activity (K562 [16]): 2.38%; IC50 (ADR5000 cell line): 0.4 µM; Activity (K562-Lucena 1 [17]): Active; Activity (K562-Lucena 1 [18]): 23.2%; Activity (K562-Lucena 1 [19]): Active; Activity (K562 [20]): 15.1%; Activity (K562-Lucena 1 [21]): Active; viability at 2.3 µM (K562 [22]): 96.7%; Activity (K562-Lucena 1 [23]): 1.38%; Activity (K562-Lucena 1 [24]): 10.8%; Activity (K562 [25]): 0.56%; Activity (K562 [26]): inactive; Activity (K562 [27]): Active; Activity (K562 [28]): 0.64%; Activity (K562-Lucena 1 [29]): 3.46%; Activity (K562-Lucena 1 [30]): Active; Activity (K562 [31]): 0.42%; viability at 5.1 µM (K562-Lucena 1 [32]): 80.4%; IC50 (K562-Lucena 1 [2]): 5.1 µM; Activity (K562 [33]): Active

Question: How did the IC50 (CCRF-CEM) turn out when C=C(CO)C(=O)O[C@H]1C/C(COC(C)=O)=C/CC/C(C)=C/[C@H]2OC(=O)C(=C)[C@H]12 was run?
Answer: Its IC50 is 3.5 µM.

Question: And the IC50 (K562 [1])?
Answer: Its IC50 is > 10 µM.

Question: What about the IC50 (ADR5000 cell line) of the same compound?
Answer: Its IC50 is 7.7 µM.

Question: What about the IC50 (K562-Lucena 1 [2]) of the same compound?
Answer: The IC50 was > 10 µM.
